Source: CN105732584A, “一种达比加群酯2-酮戊二酸盐晶型i及其制备方法和用途” (Tianjin Institute of Pharmaceutical Research Co Ltd, priority 2014, dated 2016)
In brackets after ≈: the same amount, converted by molar mass.

What was measured:
Format in all cases: physicochemical
[1] = Stability test (stress factors): change of appearance
[2] = Stability test (stress factors): content determination by HPLC
[3] = Solubility in water at 25℃; settings: H2O
[4] = high temperature and high humidity
[5] = 7 days, high temperature and high humidity

SMILES | change of colour/appearance (in words) [1, 4] | change of colour/appearance (in words) ([1]; sealed, high temperature) | content remaining [2, 5] [%] | change of content with time (in words) ([2]; sealed high temperature, and high temperature with high humidity) | moisture absorption (in words) ([1]; high temperature and high humidity, concluded from colour change and caking) | stability (in words) [2, 4] | remaining at 168 h ([2]; high temperature and humidity storage, 7 days, high temperature and high humidity) [%] | solubility [3] [µg/mL]
CCCCCCOC(=O)N=C(N)c1ccc(NCc2nc3cc(C(=O)N(CCC(=O)OCC)c4ccccn4)ccc3n2C)cc1.O=C(O)CCC(=O)C(=O)O [达比加群酯2-酮戊二酸盐晶型I, 3-[[[2-[[[4-[[[(己氧基)羰基]氨基]亚氨甲基]苯基]氨基]甲基]-1-甲基-1H-苯并咪唑-5-基]羰基](吡啶-2-基)氨基]丙酸乙酯2-酮戊二酸盐] | 颜色虽有变化但不大 | 颜色几乎无变化 | ~98 | 含量随时间变化较小 | – | – | – | –
CCCCCCOC(=O)NC(=N)c1ccc(NCc2nc3cc(C(=O)N(CCC(=O)OCC)c4ccccn4)ccc3n2C)cc1 [达比加群酯甲磺酸盐] | 颜色变化很明显且出现板结现象 | 颜色随时间产生明显变化 | < 20 | – | 吸潮严重 | 极不稳定 | < 20 | 1800 (≈ 2870 µM)
